Drawing on ChEMBL document CHEMBL5728233, “PSMA imaging agents” (2021), this text covers Ki for 1 molecule.

SMILES strings stand for the structures.

For the experiment, the target named is Glutamate carboxypeptidase 2 (Homo sapiens, UniProt Q04609). The experiment can be described thus: Enzymatic Assay for In Vitro Evaluation of PSMA Inhibitors: The inhibitory activity of all compounds was determined using a fluorescent assay of human PSMA activity. The enzyme used in the assay was purchased from R&D Systems and stored at −80° C. The PSMA activity was assayed in a two-step process. In the first step, aliquots of enzyme (0.2 μg/mL) were incubated for 1 h at 37° C. in 50 mM HEPES, 0.1 M NaCl, pH 7.5, in the presence of 20 μM NAAG and the given inhibitor, in a volume of 250 μL, to allow for the accumulation of glutamate produced in the PSMA reaction. In the second step, the amount of accumulated glutamate was measured using the OPA reaction, and the fluorescence was read with a SpectraMax fluorescent plate reader using excitation at 330 nm and emission at 450 nm. The final Ki values for each inhibitor were calculated from the respective IC50 values using the Cheng and Prusoff equation.
Chain of Glutamate carboxypeptidase 2 (Q04609 whole entry): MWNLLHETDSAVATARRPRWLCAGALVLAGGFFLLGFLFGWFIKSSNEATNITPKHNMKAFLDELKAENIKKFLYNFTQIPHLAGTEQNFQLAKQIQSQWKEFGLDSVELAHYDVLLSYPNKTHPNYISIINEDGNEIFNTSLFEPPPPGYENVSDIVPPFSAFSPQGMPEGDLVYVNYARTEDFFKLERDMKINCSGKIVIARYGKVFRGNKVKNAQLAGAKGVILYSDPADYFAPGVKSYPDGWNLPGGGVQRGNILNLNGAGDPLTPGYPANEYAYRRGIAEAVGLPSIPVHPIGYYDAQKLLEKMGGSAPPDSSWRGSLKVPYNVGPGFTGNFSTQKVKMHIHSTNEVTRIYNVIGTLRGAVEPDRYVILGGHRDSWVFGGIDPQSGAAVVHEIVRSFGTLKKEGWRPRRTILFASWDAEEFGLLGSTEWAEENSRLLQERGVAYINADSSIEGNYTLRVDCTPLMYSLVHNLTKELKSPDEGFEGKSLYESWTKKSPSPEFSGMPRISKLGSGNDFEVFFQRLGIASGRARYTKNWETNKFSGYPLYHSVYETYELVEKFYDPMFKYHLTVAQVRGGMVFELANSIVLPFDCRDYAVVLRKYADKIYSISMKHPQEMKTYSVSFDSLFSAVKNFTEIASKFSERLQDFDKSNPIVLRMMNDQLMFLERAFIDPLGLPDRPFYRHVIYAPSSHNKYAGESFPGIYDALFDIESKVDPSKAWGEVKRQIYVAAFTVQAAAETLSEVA

As to `CN(C(=O)N[C@@H](CCC(=O)O)C(=O)O)[C@@H](CCCCNC(=O)CCCCCn1cc(CCCF)nn1)C(=O)O`, the inhibitory constant (Ki) – broadly, a measure of affinity in units of concentration, obtained from inhibition or displacement – is 625 nM.
